Laboratory results reported in US4983616A, “Hexahydropyrrolo(2,3-B)indole carbamates, ureas, amides and related compounds” (priority 1990, dated 1991).
Structures can show the parent of a compound that is named as a salt. Where two headings read alike, the source gives them in different places.

Key:
[1] = molecular target: T1, Brain AChE (acetylcholinesterase, rat striatum) (Rattus norvegicus, UniProt P37136); experiment: In Vitro Inhibition of Acetylcholinesterase Activity in Rat Striatum; type: biochemical, rat (male Wistar)
T1 construct: corpora striata dissected free, weighed and homogenized in 19 volumes; from tissue; host or cells: corpora striata of male Wistar rats, whole homogenate
T1 sequence (P37136 32-614): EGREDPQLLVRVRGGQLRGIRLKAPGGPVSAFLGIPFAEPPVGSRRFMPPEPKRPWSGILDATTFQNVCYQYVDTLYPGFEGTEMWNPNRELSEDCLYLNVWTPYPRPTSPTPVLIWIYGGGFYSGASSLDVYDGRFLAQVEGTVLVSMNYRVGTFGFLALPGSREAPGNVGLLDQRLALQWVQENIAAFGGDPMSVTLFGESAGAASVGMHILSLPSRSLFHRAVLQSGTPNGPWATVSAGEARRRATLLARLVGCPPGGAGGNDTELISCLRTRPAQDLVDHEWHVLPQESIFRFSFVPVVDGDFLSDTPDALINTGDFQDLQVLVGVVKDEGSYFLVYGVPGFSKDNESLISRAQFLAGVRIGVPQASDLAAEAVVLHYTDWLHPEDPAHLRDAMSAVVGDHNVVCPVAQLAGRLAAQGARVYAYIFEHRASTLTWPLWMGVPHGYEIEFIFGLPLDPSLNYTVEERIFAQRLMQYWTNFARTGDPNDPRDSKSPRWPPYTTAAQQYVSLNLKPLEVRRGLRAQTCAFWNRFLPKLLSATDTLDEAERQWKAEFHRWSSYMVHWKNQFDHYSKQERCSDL
Protocol: Cholinesterases are found throughout the body, both in the brain and in serum. However, only brain acetylcholinesterase (AChE) distribution is correlated with central cholinergic innervation.
In Vitro Inhibition of Acetylcholinesterase Activity in Rat Striatum
The method described below was used in this invention for assaying cholinesterase activity.
1. 0.05M Phosphate buffer, pH 7.2
(a) 6.85 g NaH2 PO4 .cndot.H2 O/100 ml distilled H2 O
(c) add (a) to (b) until pH reaches 7.2
(a) 9.9 mg 5,5-dithiobisnitrobenzoic acid (DTNB) (0.25 mM)
(b) 99 mg s-acetylthiocholine chloride (5 mM)
(c) q.s. to 100 ml with 0.05M phosphate buffer, pH 7.2 (reagent 1)
3. […]
Following the 10 minute preincubation of the tissue (enzyme) with the inhibitor, the samples are mixed with the substrate chromogen buffer by the ABA-100. Using the indicated instrument settings the ABA-100 automatically reads the color reaction and prints out the results in enzyme units after 15 minutes.
2. The enzyme activity can also be measured with Gilford 250 spectrophotometer. […]
The uninhibited activity of the enzyme (tissue homogenate) is first determined. […] The reaction rate is determined by the slope of the recorded absorbance change. […]

[2] = system: Scopolamine Induced Memory Deficit; type: in vivo, mice
Protocol: In this assay mice are tested for their ability to remember an unpleasant stimulus for a period of 24 hours. A mouse is placed in a chamber that contains a dark compartment; a strong incandescent light drives it to the dark compartment, where an electric shock is administered through metal plates on the floor. The animal is removed from the testing apparatus and tested again, 24 hours later, for the ability to remember the electric shock.
If scopolamine, an anticholinergic that is known to cause memory impairment, is administered before an animal's initial exposure to the test chamber, the animal re-enters the dark compartment shortly after being placed in the test chamber 24 hours later. This effect of scopolamine is blocked by an active test compound, resulting in a greater interval before re-entry into the dark compartment.
The results for an active compound are expressed as the percent of a group of animals in which the effect of scopolamine is blocked, as manifested by an increased interval between being placed in the test chamber and re-entering the dark compartment.
Results of this assay for some of the compounds of this invention and those for tacrine and pilocarpine (reference compounds) are presented in Table 2.

[3] = 0.31 mg/kg of body weight, s.c, mice, 24 hours
[4] = 5.0 mg/kg of body weight, s.c, mice, 24 hours

Row | Compound | IC50 [1] [µM] | % of Animals with Scopolamine Induced Memory Deficit Reversal [2, 3] [%] | % of Animals with Scopolamine Induced Memory Deficit Reversal [2, 4] [%] | further results
1 | CN1CCC2(C)c3cc(NC(=O)Oc4ccccc4)ccc3N(C)C12.O=C(O)C(=O)O (stereo not shown) [1,2,3,3a,8,8a-Hexahydro-5-(phenoxycarbonylamino)-1,3a,8-trimethylpyrrolo[2,3-b]indole oxalate] | 14 | 40 | 21 | % of Animals with Scopolamine Induced Memory Deficit Reversal ([2]; 1.16 mg/kg of body weight, s.c, mice, 24 hours): 53%
2 | CN1CCC2(C)c3cc(NC(=O)Oc4ccc(Cl)cc4)ccc3N(C)C12 (stereo not shown) [5-(4-Chlorophenoxycarbonylamino)-1,2,3,3a,8,8a-hexahydro-1,3a,8-trimethylpyrrolo[2,3-b]indole oxalate] | 1.1 |  |  | 
3 | CN1CCC2(C)c3cc(NC(=O)OCc4ccccc4)ccc3N(C)C12 (stereo not shown) [5-(Benzoxycarbonylamino)-1,2,3,3a,8,8a-hexahydro-1,3a,8-trimethylpyrrolo[2,3-b]indole] |  |  |  | % of Animals with Scopolamine Induced Memory Deficit Reversal ([2]; 0.3 mg/kg of body weight, s.c, mice, 24 hours): 28%; % of Animals with Scopolamine Induced Memory Deficit Reversal ([2]; 1.0 mg/kg of body weight, s.c, mice, 24 hours): 21%; % of Animals with Scopolamine Induced Memory Deficit Reversal ([2]; 3.0 mg/kg of body weight, s.c, mice, 24 hours): 21%
4 | CN1CCC2(C)c3cc(NC(=O)OC(C)(C)C)ccc3N(C)C12.O=C(O)C(=O)O (stereo not shown) [5-(t-Butoxycarbonylamino)-1,2,3,3a,8,8a-hexahydro-1,3a,8-trimethylpyrrolo[2,3-b]indole oxalate] |  | 33 | 27 | % of Animals with Scopolamine Induced Memory Deficit Reversal ([2]; 1.25 mg/kg of body weight, s.c, mice, 24 hours): 20%
5 | CC[C@@H]1C(=O)OC[C@@H]1Cc1cncn1C [Pilocarpine, reference compound] |  |  | 13 | 
6 | Nc1c2c(nc3ccccc13)CCCC2 [Tacrine, reference compound] |  |  |  | % of Animals with Scopolamine Induced Memory Deficit Reversal ([2]; mouse, in vivo): 13%
